Source: ChEMBL document CHEMBL1141332, “Cytotoxic metabolites from an Indonesian sponge Lendenfeldia sp” (J Nat Prod, 2007)
“And” between values parts separate entries of the source, which are not always exact repeats. Equal values may be shown once.

Tests used:
Type in all cases: functional
[1] = system: HL-60; test: Cytotoxicity against human HL60 cells
[2] = system: K562; test: Cytotoxicity against human K562 cells
[3] = system: MOLT-4; test: Cytotoxicity against human MOLT4 cells
[4] = system: RPMI-8226; test: Cytotoxicity against human RPMI8226 cells
[5] = system: A549; test: Cytotoxicity against human A549 cells
[6] = system: HOP-62; test: Cytotoxicity against human HOP62 cells
[7] = system: HOP-92; test: Cytotoxicity against human HOP92 cells
[8] = system: NCI-H226; test: Cytotoxicity against human NCI-H226 cells
[9] = system: NCI-H23; test: Cytotoxicity against human NCI-H23 cells
[10] = system: NCI-H322M; test: Cytotoxicity against human NCI-H322M cells
[11] = system: NCI-H460; test: Cytotoxicity against human NCI-H460 cells
[12] = system: NCI-H522; test: Cytotoxicity against human NCI-H522 cells
[13] = system: LOX IMVI; test: Cytotoxicity against human LOX IMVI cells
[14] = system: COLO 205; test: Cytotoxicity against human COLO205 cells
[15] = system: HCC 2998; test: Cytotoxicity against human HCC2998 cells
[16] = system: HCT-116; test: Cytotoxicity against human HCT116 cells
[17] = system: HCT-15; test: Cytotoxicity against human HCT15 cells
[18] = system: HT-29; test: Cytotoxicity against human HT29 cells
[19] = system: KM12; test: Cytotoxicity against human KM12 cells
[20] = system: SF-268; test: Cytotoxicity against human SF268 cells
[21] = system: SF-539; test: Cytotoxicity against human SF539 cells
[22] = system: SNB-19; test: Cytotoxicity against human SNB19 cells
[23] = system: SNB-75; test: Cytotoxicity against human SNB75 cells
[24] = system: U-251; test: Cytotoxicity against human U251cells
[25] = system: SK-MEL-28; test: Cytotoxicity against human SK-MEL-28 cells
[26] = system: UACC-257; test: Cytotoxicity against human UACC257 cells
[27] = system: UACC-62; test: Cytotoxicity against human UACC62 cells
[28] = system: IGROV-1; test: Cytotoxicity against human IGROV1 cells
[29] = system: OVCAR-3; test: Cytotoxicity against human OVCAR-3 cells
[30] = system: OVCAR-4; test: Cytotoxicity against human OVCAR4 cells
[31] = system: OVCAR-5; test: Cytotoxicity against human OVCAR5 cells
[32] = system: OVCAR-8; test: Cytotoxicity against human OVCAR8 cells
[33] = system: SK-OV-3; test: Cytotoxicity against human SK-OV-3 cells
[34] = system: 786-0; test: Cytotoxicity against human 786-0 cells
[35] = system: SN12C; test: Cytotoxicity against human SN12C cells
[36] = system: TK-10; test: Cytotoxicity against human TK10 cells
[37] = system: PC-3; test: Cytotoxicity against human PC3 cells
[38] = system: DU-145; test: Cytotoxicity against human DU145 cells
[39] = system: MCF7; test: Cytotoxicity against human MCF7 cells
[40] = system: NCI/ADR-RES; test: Cytotoxicity against human NCI/ADR-RES cells
[41] = system: MDA-MB-231; test: Cytotoxicity against human MDA-MB-231 cells
[42] = Cytotoxicity against human HS578T cells; conditions: Hs-578T
[43] = system: MDA-MB-435; test: Cytotoxicity against human MDA-MB-435 cells
[44] = system: BT-549; test: Cytotoxicity against human BT549 cells
[45] = system: T47D; test: Cytotoxicity against human T47D cells
[46] = read-out: Log LC50 (the source's name) (converted)

CC(=O)O[C@H]1C[C@H]2[C@@](C)(CC[C@H]3C(C)(C)CCC[C@@]32CO)[C@@H]2CC=C(C(C)=O)[C@H](C=O)[C@@]12C
GI50 ([1]; Homo sapiens, HL-60): 170 nM | TGI ([1]; read-out: Log TGI (converted)): 537 nM and 2630 nM | GI50 [2]: 2190 nM | CC50 [2, 46]: 30200 nM | TGI ([2]; read-out: Log TGI (converted)): 7760 nM | GI50 [3]: 195 nM | CC50 [3, 46]: 1950 nM | TGI ([3]; read-out: Log TGI (converted)): 513 nM | GI50 [4]: 427 nM | CC50 [4, 46]: 8130 nM | TGI ([4]; read-out: Log TGI (converted)): 1820 nM | GI50 [5]: 562 nM | CC50 [5, 46]: 4680 nM | TGI ([5]; read-out: Log TGI (converted)): 1860 nM | GI50 [6]: 295 nM | CC50 [6, 46]: 2450 nM | TGI ([6]; read-out: Log TGI (converted)): 724 nM | GI50 [7]: 1350 nM | CC50 [7, 46]: 5500 nM | TGI ([7]; read-out: Log TGI (converted)): 2750 nM | GI50 [8]: 1380 nM | CC50 [8, 46]: > 100000 nM | TGI ([8]; read-out: Log TGI (converted)): 2820 nM | GI50 [9]: 1410 nM | CC50 [9, 46]: 5500 nM | TGI ([9]; read-out: Log TGI (converted)): 2750 nM | GI50 [10]: 1910 nM | CC50 [10, 46]: 7590 nM | TGI ([10]; read-out: Log TGI (converted)): 3800 nM | GI50 [11]: 759 nM | CC50 [11, 46]: 6030 nM | TGI ([11]; read-out: Log TGI (converted)): 2290 nM | GI50 [12]: 1050 nM | CC50 [12, 46]: 6460 nM | TGI ([12]; read-out: Log TGI (converted)): 2570 nM | GI50 [13]: 234 nM | CC50 [13, 46]: 1780 nM | TGI ([13]; read-out: Log TGI (converted)): 550 nM | GI50 [14]: 295 nM | CC50 [14, 46]: 4370 nM | TGI ([14]; read-out: Log TGI (converted)): 1320 nM | GI50 [15]: 1000 nM | CC50 [15, 46]: 4790 nM | TGI ([15]; read-out: Log TGI (converted)): 2190 nM | GI50 [16]: 186 nM | CC50 [16, 46]: 676 nM | TGI ([16]; read-out: Log TGI (converted)): 355 nM | GI50 [17]: 224 nM | CC50 [17, 46]: 1230 nM | TGI ([17]; read-out: Log TGI (converted)): 490 nM | GI50 [18]: 324 nM | CC50 [18, 46]: 4270 nM | TGI ([18]; read-out: Log TGI (converted)): 1150 nM | GI50 [19]: 501 nM | CC50 [19, 46]: 4570 nM | TGI ([19]; read-out: Log TGI (converted)): 1700 nM | GI50 [20]: 447 nM | CC50 [20, 46]: 6170 nM | TGI ([20]; read-out: Log TGI (converted)): 1860 nM | GI50 [21]: 195 nM | CC50 [21, 46]: 794 nM | TGI ([21]; read-out: Log TGI (converted)): 389 nM | GI50 [22]: 1120 nM | CC50 [22, 46]: 5750 nM | TGI ([22]; read-out: Log TGI (converted)): 2570 nM | GI50 [23]: 355 nM | CC50 [23, 46]: 3470 nM | TGI ([23]; read-out: Log TGI (converted)): 1120 nM | GI50 [24]: 347 nM | CC50 [24, 46]: 3470 nM | TGI ([24]; read-out: Log TGI (converted)): 1200 nM | GI50 [25]: 251 nM | CC50 [25, 46]: 2290 nM | TGI ([25]; read-out: Log TGI (converted)): 631 nM | GI50 [26]: 1950 nM | CC50 [26, 46]: 9550 nM | TGI ([26]; read-out: Log TGI (converted)): 4370 nM | GI50 [27]: 1480 nM | CC50 [27, 46]: 5370 nM | TGI ([27]; read-out: Log TGI (converted)): 2820 nM | GI50 [28]: 1580 nM | CC50 [28, 46]: 7080 nM | TGI ([28]; read-out: Log TGI (converted)): 3310 nM | GI50 [29]: 204 nM | CC50 [29, 46]: 676 nM | TGI ([29]; read-out: Log TGI (converted)): 372 nM | GI50 [30]: 575 nM | CC50 [30, 46]: 5010 nM | TGI ([30]; read-out: Log TGI (converted)): 1910 nM | GI50 [31]: 832 nM | CC50 [31, 46]: 4680 nM | TGI ([31]; read-out: Log TGI (converted)): 2090 nM | GI50 [32]: 263 nM | TGI ([32]; read-out: Log TGI (converted)): 692 nM | GI50 [33]: 1200 nM | CC50 [33, 46]: 6310 nM | TGI ([33]; read-out: Log TGI (converted)): 2750 nM | GI50 [34]: 224 nM | CC50 [34, 46]: 1170 nM | TGI ([34]; read-out: Log TGI (converted)): 490 nM | GI50 [35]: 1200 nM | LC50 [35]: 5010 nM | TGI ([35]; read-out: Log TGI (converted)): 2450 nM | GI50 [36]: 302 nM | LC50 [36]: 3390 nM | TGI ([36]; read-out: Log TGI (converted)): 891 nM | GI50 [37]: 380 nM | LC50 [37]: 3800 nM | TGI ([37]; read-out: Log TGI (converted)): 1350 nM | GI50 [38]: 457 nM | LC50 [38]: 3980 nM | TGI ([38]; read-out: Log TGI (converted)): 1580 nM | GI50 [39]: 776 nM | LC50 [39]: 25700 nM | TGI ([39]; read-out: Log TGI (converted)): 3470 nM | GI50 [40]: 1070 nM | LC50 [40]: 6170 nM | TGI ([40]; read-out: Log TGI (converted)): 2570 nM | GI50 [41]: 891 nM | LC50 [41]: 4570 nM | TGI ([41]; read-out: Log TGI (converted)): 2090 nM | GI50 [42]: 240 nM | LC50 [42]: 3240 nM | TGI ([42]; read-out: Log TGI (converted)): 646 nM | GI50 [43]: 525 nM | LC50 [43]: 4270 nM | TGI ([43]; read-out: Log TGI (converted)): 1740 nM | GI50 [44]: 214 nM | LC50 [44]: 977 nM | TGI ([44]; read-out: Log TGI (converted)): 457 nM | GI50 [45]: 1020 nM | LC50 [45]: 8910 nM | TGI ([45]; read-out: Log TGI (converted)): 3020 nM
